Like-named read-outs stand apart in the source and are kept apart here. Marks after values point to notes of the source that are not given here.
Assays:
[1] = cited from earlier work
[2] = for futibatinib CL/F: arithmetic mean ± SD
P‐glycoprotein (P‐gp) = conditions: in vitro; cited from earlier work
[3] = participants with advanced solid tumors; cited from earlier work
clinical [4] = conditions: human, plasma, 20 mg
Safety evaluation [5] = type: in vivo, human (healthy adults); conditions: part 1, treatments pooled
[6] = cited from earlier work; remark: listed apart in the source
[7] = for digoxin CL/F: arithmetic mean ± SD
clinical [8] = conditions: human, plasma, oral, geometric mean (geometric CV%), n = 20
Safety evaluation [9] = type: in vivo, human (healthy adults); conditions: part 2; of a total of 27 TEAEs
[10] = with itraconazole; cited from earlier work
[11] = Phase I DDI study part 1: plasma rosuvastatin PK with and without futibatinib; type: in vivo, human (healthy adults)
[12] = quinidine coadministration vs. futibatinib alone
[13] = digoxin + rosuvastatin, without futibatinib, median (min, max)
[14] = after coadministration with futibatinib vs. rosuvastatin plus digoxin
[15] = digoxin + rosuvastatin, without futibatinib, arithmetic mean ± SD, 18 participants

Which “difference in futibatinib exposure” value ([1]; administered with or without lansoprazole) does the source give for `C=CC(=O)N1CC[C@H](n2nc(C#Cc3cc(OC)cc(OC)c3)c3c(N)ncnc32)C1` [futibatinib] here?
Its value is “no significant differences”.

And the futibatinib bioavailability lower ([1]; fed versus fasted conditions, healthy participants)?
Its futibatinib bioavailability lower is 11.2%.

And the “futibatinib CL/F” value ([2]; futibatinib + quinidine, n = 15)?
Its value is 34.3 ± 13.2 L/h.

What about the “futibatinib AUCinf” value ([2]; futibatinib + quinidine, geometric mean (geometric CV%), n = 15) of the same compound?
The value was 627.0 (41.6) ng*h/mL.

And the “futibatinib CL/F” value ([2]; futibatinib alone, n = 24)?
The value was 43.1 ± 40.8 L/h.

And the “increase in futibatinib C max and AUC” value [2, 12]?
The value was under 20%.

And the “magnitude of increase in futibatinib AUC0–24” value [2, 12]?
The value was 16%.

And the “magnitude of increase in futibatinib AUCinf (exposure)” value [2, 12]?
The value was 17%.

What about the “magnitude of increase in futibatinib C max” value [2, 12] of the same compound?
Its value is 8%.

And the “futibatinib AUC0–24 GMR (90% CI)” value ([2]; with vs. without quinidine)?
Its value is 116.4 (95.4–142.1) %.

And the “futibatinib AUCinf GMR (90% CI)” value ([2]; with vs. without quinidine)?
Its value is 117.0 (96.0–142.7) %.

And the “futibatinib C max GMR (90% CI)” value ([2]; with vs. without quinidine)?
Its value is 108.0 (90.9–128.3) %.

What about the “substrate of P‐gp” value (P‐glycoprotein (P‐gp)) of the same compound?
The value was “substrate”.

What about the “terminal elimination half‐life (t ½)” value [3] of the same compound?
The value was “approximately 3 h”.

And the Vd/F (clinical [4]; oral)?
Its Vd/F is 132 ± 72.2 L.

What about the half-life (clinical [4]; oral) of the same compound?
The half-life was 2.5 ± 0.83 h.

What about the AUC(0-inf) (clinical [4]; oral, futibatinib AUCinf, futibatinib alone, geometric mean (geometric CV%), n = 24) of the same compound?
Its AUC(0-inf) is 582 ng·h/mL.

And the AUC(0-t) (clinical [4]; po)?
Its AUC(0-t) is 580 ng·h/mL.

What about the TEAE diarrhea (Safety evaluation [5]) of the same compound?
Its TEAE diarrhea is 80%.

What about the “TEAE increased blood phosphate” value (Safety evaluation [5]) of the same compound?
Its value is 75%.

And the futibatinib exposure increased ([6]; coadministered with itraconazole (dual P‐gp and CYP3A inhibitor))?
Its futibatinib exposure increased is 41%–51%.

And the futibatinib exposure decreased ([6]; coadministered with rifampin (dual P‐gp and CYP3A inducer))?
The futibatinib exposure decreased was 53%–64%.

For `C[C@H]1O[C@@H](O[C@H]2[C@@H](O)C[C@H](O[C@H]3[C@@H](O)C[C@H](O[C@H]4CC[C@@]5(C)[C@H](CC[C@@H]6[C@@H]5C[C@@H](O)[C@]5(C)[C@@H](C7=CC(=O)OC7)CC[C@]65O)C4)O[C@@H]3C)O[C@@H]2C)C[C@H](O)[C@@H]1O` [digoxin], which “digoxin CL/F” value ([7]; digoxin + rosuvastatin with futibatinib, 19 participants) is on record?
Its value is 14.6 ± 5.4 ^a L/h.

What about the “digoxin CL/F” value ([7]; digoxin + rosuvastatin, without futibatinib) of the same compound?
The value was 14.6 ± 4.1 L/h.

And the “digoxin T max” value [7, 13]?
The value was 1.0 (0.67, 2.0) h.

What about the “mean digoxin renal clearance lower” value ([7]; digoxin administered with futibatinib vs. without) of the same compound?
The value was 13%.

What about the “delay of median digoxin T max” value ([7]; following digoxin, rosuvastatin and futibatinib vs. without futibatinib) of the same compound?
Its value is ~ 0.3 h.

What about the “difference in digoxin C max and AUC” value ([7]; with and without futibatinib) of the same compound?
Its value is under 20%.

What about the “digoxin AUC0–120 GMR (90% CI)” value ([7]; with vs. without futibatinib) of the same compound?
Its value is 103.9 (94.5–114.2) %.

What about the “digoxin AUCinf GMR (90% CI)” value ([7]; with vs. without futibatinib) of the same compound?
Its value is 100.2 (90.8–110.5) %.

What about the “digoxin C max GMR (90% CI)” value ([7]; with vs. without futibatinib) of the same compound?
Its value is 95.1 (81.1–111.5) %.

And the “digoxin CLr GMR (90% CI)” value ([7]; with vs. without futibatinib)?
Its value is 87.1 (80.8–93.9) %.

What about the AUC(0-inf) (clinical [8]; digoxin AUCinf, digoxin + rosuvastatin, without futibatinib) of the same compound?
Its AUC(0-inf) is 17.7 ng·h/mL.

And the Cmax (clinical [8]; digoxin C max, digoxin + rosuvastatin with futibatinib 20 mg once daily)?
The Cmax was 0.953 ng/mL.

For `C=C[C@H]1C[N@@]2CC[C@H]1C[C@@H]2[C@@H](O)c1ccnc2ccc(OC)cc12` [quinidine], which “TEAEs considered by the investigator to be related to the drug” value (Safety evaluation [9]) is on record?
The value was 22 events.

For `CCN1C(=O)N(c2c(F)c(OC)cc(OC)c2F)Cc2cnc3[nH]c(CN4CCOCC4)cc3c21` [pemigatinib], which “increase in pemigatinib AUC” value [10] is on record?
The value was 88%.

And the “increase in pemigatinib C max” value [10]?
Its value is 17%.

Which results are given for `CC(C)c1nc(N(C)S(C)(=O)=O)nc(-c2ccc(F)cc2)c1/C=C/[C@@H](O)C[C@@H](O)CC(=O)O` [rosuvastatin]?
geometric mean rosuvastatin AUCs higher [11, 14]: ≤ 18.8%; geometric mean rosuvastatin C max higher [11, 14]: 10.2%; rosuvastatin CL/F ([11]; digoxin + rosuvastatin with futibatinib, arithmetic mean ± SD): 207.2 ± 105.7 L/h; rosuvastatin CL/F [11, 15]: 247.3 ± 167.2 ^c L/h; rosuvastatin t ½ [11, 15]: 16.7 ± 8.5 ^c h; rosuvastatin T max [11, 13]: 4.0 (1.0, 6.1) h; AUC(0-inf) ([11]; human, plasma, oral, rosuvastatin AUCinf, digoxin + rosuvastatin, without futibatinib, geometric mean (geometric CV%), 18 participants): 46.9 ng·h/mL; increase in rosuvastatin C max and AUC ([11]; with vs. without futibatinib): < 20%; rosuvastatin AUC0–72 GMR (90% CI) ([11]; with vs. without futibatinib): 118.8 (107.9–130.7) %; rosuvastatin AUCinf GMR (90% CI) ([11]; with vs. without futibatinib): 113.5 (102.6–125.5) %; rosuvastatin C max GMR (90% CI) ([11]; with vs. without futibatinib): 110.2 (97.3–124.8) %

Reference: PMC11388056 (Clinical and Translational Science, 2024)
